{
  "source": "patent US6201025A",
  "about": "“N-aralkylaminotetralins as ligands for the neuropeptide Y Y5 receptor” (Ortho-McNeil Pharmaceutical, Inc., priority 1999, dated 2001)",
  "origin": "cited, not measured here",
  "key": {"[1]": {"test_system": "luteinizing hormone (LH)", "settings": "rodents; cited from earlier work"}, "[2]": {"test_system": "rodents", "settings": "intracerebroventricularly; cited from earlier work"}, "[3]": {"test_system": "food intake in rats", "settings": "satiated rats; as little as one-billionth of a gram; cited from earlier work"}, "[4]": {"test_system": "animal models of learning", "settings": "cited from earlier work"}, "[5]": {"test_system": "live animals", "settings": "icv or into the amygdala; cited from earlier work"}, "[6]": {"test_system": "forskolin-stimulated cAMP production/levels in a neuroblastoma cell line", "settings": "cited from earlier work"}, "[7]": {"test_system": "feeding in animals", "settings": "cited from earlier work"}, "[8]": {"test_system": "classic Y1 receptor", "settings": "cited from earlier work"}},
  "data": [
    {"substance": "neuropeptide Y [NPY]", "values": [
      {"measurement": "release of luteinizing hormone (LH)", "setting": "[1]", "value": "mediates endocrine functions such as the release of luteinizing hormone (LH)"},
      {"measurement": "anxiogenic effect", "setting": "[2]", "value": "not anxiogenic"},
      {"measurement": "effect on food intake, injected directly into the CNS", "setting": "[3]", "value": "causes satiated rats to overeat"},
      {"measurement": "memory and performance scores", "setting": "[4]", "value": "improves memory and performance scores"},
      {"measurement": "effect in animal models of anxiety", "setting": "[5]", "value": "produces anxiolytic effects"},
      {"measurement": "effect on forskolin-stimulated cAMP production/levels", "setting": "[6]", "value": "inhibits forskolin-stimulated cAMP production/levels"}
    ]},
    {"substance": "NPY2-36: NPY fragment", "values": [
      {"measurement": "feeding response", "setting": "[7]", "value": "potent inducer of feeding"},
      {"measurement": "binding at the classic Y1 receptor", "setting": "[8]", "value": "poor binding"}
    ]}
  ]
}
